Data: patent publication US20240393319A1, “FLUORESCENT SENSORS AND METHODS OF MAKING AND USING” (Howard Hughes Medical Institute, priority 2023, published 2024)
Where two headings read alike, the source gives them in different places.

Columns and labels:
[1] = target: T1, iATPSnFR2.A95A.A119L.HaloTag-JFX650 (L1-VLVG, L2-ICV); cpSFGFP inserted in epsilon subunit of Bacillus subtilis PS3 F0-F1 ATPase; mutations A95A, A119L; SEQ ID N (Bacillus sp. PS3, UniProt P07678); test: ATP/nucleotide titration, binding curve fits; details: for Kd: A95A.A119L; for fluorescence change in response to nucleoside triphosphate: GTP, CTP, TTP
T1 construct: E. coli, Ni-NTA purified
From the text: (1A) Artistic rendering of iATPSnFR2.HaloTag made with PyMol. The N-terminal fragment (residues 1-109) of the epsilon subunit of ATPase (orange, based on 2E5Y.PDB) is fused to cpSFGFP (green). The C-terminus of cpSFGFP is fused to the residual ATP-binding helix (residues 110-129) of the epsilon subunit (pink), which itself is fused to HaloTag (cyan). “Linkers” are shown as sticks in yellow. […] HaloTag fluorophore is shown as sticks in red. […] (1C-1E) Ratio of green (iATPSnFR2) to red (HaloTag-JFX650) fluorescence in fibroblasts transfected with three affinity variants of iATPSnFR2-HaloTag. […] Cells were incubated for 21 minutes in buffer containing 10 mM glucose, and then switched to buffer containing 10 mM 2-deoxyglucose. (1C) Rho° cells. (1D) Parental LMTK cell line. (1E) Parental cell line treated with both 2-deoxyglucose and oligomycin.
ATP (black), CTP (cyan), GTP (grey), TTP (purple).
(§1) Purified protein was mixed with 1.1 molar equivalents of JFX650 HaloTag Ligand and incubated at room temperature for 1 hour and then at 4° C. overnight. Excess HaloTag Ligand was removed by gel filtration on a PD-10 column (GE Life Sciences) and re-concentrated by ultrafiltration.
The iATPSnFR2.HaloTag-JFX650 was the primary protein used for in vitro characterization.

[2] = test system: axonal mitochondria of primary neurons; test: Axonal mitochondrial ATP (mito-iATPSnFR2) after removal of glucose; format: cell-based
Method: Similar results were obtained in neurons where LDs were induced by blocking DDHD2 activity with KLH45 for 24 hours.

[3] = ATP titration with added inorganic phosphate; format: binding; details: 20 mM PO4, pH 7
[4] = pH dependence of fluorescence; format: physicochemical; details: ligand-free sensor
[5] = test system: axonal mitochondria of primary hippocampal neurons; test: Mitochondrial matrix ATP without glucose (mito-iATPSnFR2); format: cell-based, Sprague-Dawley rats
Method: Data is represented as mean±SE for N=4 (each condition). […] Data from N=4 for each condition is represented as mean±SE, p-value (**≤0.001 for PA and PA+Etox) was determined using unpaired samples t-test. ns signifies non-significant change in mean values.
(§2) Primary neuronal cultures were prepared as previously described. Hippocampal CA1 to CA3 regions were dissected, dissociated, and plated onto poly-L-ornithine-coated coverslips. Plating media consisted of the minimal essential medium, 0.5% glucose, insulin (0.024 g/l), transferrin ([…]), GlutaMAX 1%, N-21 (2%), and fetal bovine serum (10%). After 1-3 days in vitro (DIV), cells were fed and maintained in media with the following modifications: cytosine β-D-arabinofuranoside (4 μM) and FBS 5%. Cultures were incubated at 37° C. in a 95% air/5% CO2 incubator. […]
(§3) Coverslips were loaded onto a custom chamber, mounted on a Zeiss inverted microscope and perfused at ˜100 μl min^−1 with Tyrode's solution containing: 119 mM NaCl, 2.5 mM KCl, 30 mM glucose, 25 mM HEPES, 2 mM CaCl2), 2 mM MgCl2, 50 μM DL-2-amino-5-phosphonovaleric acid (APV, AP5), 10 μM 6-cyano-7-nitroquinoxaline-2,3-dione (CNQX), adjusted to pH 7.4. […] Fluorescence was stimulated with OBIS 488 nm LX or OBIS 637 nm LS lasers (Coherent) passing through a laser speckle reducer (LSR 3005 at 12° diffusion angle, Optotune). […]

[6] = test system: synaptic boutons of hippocampal neurons; test: Syn-iATPSnFR2.HaloTag imaging of ATP depletion in boutons; format: cell-based, rat; details: 5 mM glucose + 10 μM KA + 0.3 μM TTX
Rho° (ρ^0) cells = test: Green:red ratio imaging in Rho° fibroblasts; format: cell-based, mouse; details: 10 mM 2dOG
Method: (§4) Rho° and the parental LMTK-cells were maintained in T-75 flasks with DMEM+10% FBS+1 mM pyruvate+5 μM uridine. Two days prior to transfection, they were split into a 24-well plate (half Rho°, half LMTK) at 0.6 and 0.1 million cells per well, respectively. Cells were transfected with iATPSnFR2.HaloTag variants by lipofectamine (0.5 μg DNA+2 μL lipofectamine 2000 per well) for 4-6 hours in DMEM lacking FBS or antibiotics. Transfection media was replaced with fresh DMEM+10% FBS+penicillin/streptomycin overnight. Cells were labeled with JFX650 HaloTag ligand by adding the fluorophore to 100 nM for an hour. Cells were washed with Mammalian Cell Imaging Buffer and imaged in a Cytation 5 imaging reader (BioTek) over the course of about 2 hours. After about 20 minutes of imaging to establish a baseline fluorescence, the culture plate was removed from the instrument and buffer was replaced with the query buffer. The equilibration buffer contained 10 mM glucose, and the query buffers contained 10 mM 2dOG.
(§5) Images were background subtracted and aligned for movement artefacts with the Gen5 software package that controls the Cytation 5 instrument. Images were assembled as TIF stacks and imported into ImageJ. […] Those ROIs were used to determine the ratio of green to red fluorescence for each well. […]

[7] = TTP titration of purified iATPSnFR2 sensor; format: binding
Method: iATPSnFR2 variants were transformed into E. coli BL21 (DE3) pLysS cells. Protein expression was induced by growth in 300 mL autoinduction media supplemented with 100 μg/mL ampicillin at 30° C. […] Fractions that were fluorescent were pooled and concentrated by ultrafiltration (Amicon) and then dialyzed by Slide-A-Lyzer cassette (30 kDa cutoff) in Mammalian Cell Imaging Buffer. Protein concentration was quantified by alkali denaturation and measurement of the GFP chromophore, with an extinction coefficient of […] at 447 nm.
as §1

LMTK- cells = test: Green:red ratio imaging in parental LMTK- fibroblasts; format: cell-based, mouse
Method: as §4, §5

[8] = test system: axonal mitochondria of primary hippocampal neurons; test: mito-iATPSnFR2.HaloTag imaging of mitochondrial ATP in neurons; format: cell-based, rat; details: 1.25 mM lactate + 1.25 mM pyruvate + 10 μM oligomycin
Method: All experiments involving animals were performed in accordance with protocols approved by the Weill Cornell Medicine Institutional Animal Care and Use Committee. Neurons were derived from Sprague-Dawley rats (Charles River Laboratories strain code: 001, RRID: RGD_734476) of either sex on postnatal days 0-2).
as §2, §3

[9] = Stopped-flow fluorescence kinetics of ATP binding
Method: Final concentration of protein was thus 0.1 μM.

[10] = test system: nerve terminals of dissociated hippocampal neurons; test: Cytosolic ATP in nerve terminals during action potential firing; format: cell-based, rat; details: 6 sec at 50 Hz, 5 mM glucose + 10 μM KA
MaLion = details: cited from earlier work
ChemoG-ATPSiR = details: cited from earlier work

T1 sequence (P07678 whole entry, stated change not applied): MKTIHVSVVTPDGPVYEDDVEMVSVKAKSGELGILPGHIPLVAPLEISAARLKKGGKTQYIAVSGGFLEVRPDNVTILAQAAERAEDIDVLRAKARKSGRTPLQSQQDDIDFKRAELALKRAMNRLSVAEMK

Compound: Nc1ncnc2c1ncn2[C@@H]1O[C@H](COP(=O)(O)OP(=O)(O)O)[C@@H](O)[C@H]1O [ADP]
- ΔF/F for ADP [1]: ~6
- Kd ([1]; read-out: affinity for ADP (binding curve fit), head-to-head with ATP): 5.3 mM
- Kd ([1]; read-out: affinity for ADP, FIG. 1B, 5D): 5.3 mM

Compound: CCOC(=O)[C@@]1(CCCCCCOc2ccc(Cl)cc2)CO1 [etomoxir]
- mitochondrial ATP levels after removal of glucose ([2]; after KLH45 24 hours, etomoxir included): ATP decline over a 10-minute period
- decline in mitochondrial ATP level ([2]; palmitic acid pre-fed neurons, applied when removing glucose): identical to the control neurons without any fuel supplement

Compound: iATPSnFR2: improved ATP sensor: cpSFGFP inserted in epsilon subunit of ATPase, L1-VLVG, L2-ICV, A95A, A119L
- effect of inorganic phosphate on the sensor [3]: not affected
- pKa [4]: about 6.0

Compound: O=C(N(CCc1ccccc1)C1CCCCC1)n1ncc(-c2ccc(OC(F)(F)F)cc2)n1 [KLH45]
- mitochondrial ATP levels after removal of glucose ([2]; DDHD2 blocked for 24 hours, then glucose and KLH45 removed): sustained
- mitochondrial ATP levels in absence of glucose ([5]; KLH45 for 24 hours, then removed): ATP levels are sustained

Compound: A95A.A119L: low affinity iATPSnFR2 variant, characterised as HaloTag-JFX650 fusion
- average green to red fluorescence ratio in boutons [6]: greater drop than the medium affinity A95K variant
- effect of inorganic phosphate on the sensor [3]: negligibly affected
- green fluorescence after glucose replaced with 2dOG (Rho° (ρ^0) cells): nearly non-fluorescent within minutes of treatment
- fluorescence response to TTP [7]: but not TTP

Compound: Nc1ncnc2c1ncn2[C@@H]1O[C@H](COP(=O)(O)O)[C@@H](O)[C@H]1O [AMP]
- affinity for AMP [1]: minimal, if any, affinity

Compound: O=CC[C@@H](O)[C@H](O)[C@H](O)CO [2dOG, 2-deoxyglucose]
- fluorescence after 2dOG treatment (LMTK- cells; 10 mM 2dOG, parental LMTK- cells): decreased fluorescence only in the parental LMTK-cells expressing the weakest affinity variant
- green fluorescence after glucose replaced with 2dOG (Rho° (ρ^0) cells): rapidly dropped

Compound: CC[C@H]1/C=C/C=C/C[C@@H](C)[C@H](O)[C@@](C)(O)C(=O)[C@@H](C)[C@H](O)[C@@H](C)C(=O)[C@@H](C)[C@H](O)[C@@H](C)/C=C/C(=O)O[C@@H]2[C@H](C)[C@H](CC1)O[C@]1(CC[C@H](C)[C@H](C[C@@H](C)O)O1)[C@H]2C [oligomycin]
- fluorescence after 2dOG and oligomycin (LMTK- cells; parental cells, both 2dOG and oligomycin): dropped in a manner similar to the ρ^0 cells
- mitochondrial ATP signal [8]: further collapse of the ATP signal

Compound: Nc1ccn([C@@H]2O[C@H](COP(=O)(O)OP(=O)(O)OP(=O)(O)O)[C@@H](O)[C@H]2O)c(=O)n1 [CTP]
- fluorescence change in response to nucleoside triphosphate ([1]; FIG. 5E): changes fluorescence
- Kd ([1]; read-out: affinity for CTP (binding curve fit), FIG. 5E): ~10 mM

Compound: CCCCCCCCCCCCCCCC(=O)O [palmitic acid]
- mitochondrial ATP levels in absence of glucose ([2]; pre-fed for 4 hours, 10 minutes): sustained
- mitochondrial ATP levels in absence of glucose ([5]; palmitic acid pre-fed for 4 hours, 10 minutes): mitochondrial ATP levels were sustained

Compound: A95K: medium affinity iATPSnFR2 variant, characterised as HaloTag-JFX650 fusion
- rate of ATP binding / fluorescence change, comparison [9]: faster than A95A.A119L
- fluorescence change on action potential firing [10]: much smaller amplitude

Compound: Nc1nc2c(ncn2[C@@H]2O[C@H](COP(=O)(O)OP(=O)(O)OP(=O)(O)O)[C@@H](O)[C@H]2O)c(=O)[nH]1 [GTP]
- fluorescence change in response to nucleoside triphosphate ([1]; FIG. 5E): changes fluorescence
- Kd ([1]; read-out: affinity for GTP (binding curve fit), FIG. 5E): ~10 mM
- change in fluorescence with GTP (MaLion): no change in fluorescence
- change in fluorescence with GTP (ChemoG-ATPSiR): no change in fluorescence

Compound: Cc1cn([C@H]2C[C@H](O)[C@@H](COP(=O)(O)OP(=O)(O)OP(=O)(O)O)O2)c(=O)[nH]c1=O [TTP]
- fluorescence change in response to nucleoside triphosphate ([1]; FIG. 5E): not

Compound: S29W.A95K: high affinity iATPSnFR2 variant, characterised as HaloTag-JFX650 fusion
- rate of ATP binding / fluorescence change, comparison [9]: faster than A95A.A119L
